Experiments:
[1] = test system: NCI-H1155 (lung cancer cells); experiment: CytoX cell viability assay, NCI-H1155 cells; format: cell-based; details: 72 hours; for viability at 0.01 µM / viability at 0.5 µM: Homo sapiens
Method: The viability of NCI-H1155 (lung cancer cells) was measured using the CytoX cell viability assay kit (LPS Solution, #CYT3000). NCI-H1155 cells were seeded in a 12-well plate, and each compound of the present disclosure and a comparative compound (CC-90009) were treated at 10 nM and 500 nM concentrations for 72 hours. CytoX solution was then added to the cells and incubated for 1 hour.

KG-1 cancer cells = experiment: Cytotoxicity assay (WST-1), KG-1 cells; format: cell-based; details: Homo sapiens, 72 hours
Method: Cancer cells (KG-1) were seeded at a density of 10,000 cells per well in 96-well plates. The compound of the present disclosure and control compounds (Comparative Compounds 1, 2, and 3) were treated at predetermined concentrations. After 72 hours, the cells were treated with WST-1 reagent for 1 hour. Then, absorbance was read at 450 nm using a SpectraMax spectrophotometer to determine cell viability.

| Compound | viability at 0.01 µM ([1]; 10 nM) [%] | viability at 0.5 µM ([1]; 500 nM) [%] | IC50 (KG-1 cancer cells) [nM] | other results |
| --- | --- | --- | --- | --- |
| O=C1CCC(N2Cc3cc(CNC(=O)c4cc(-c5ccc(F)cc5)nc5ccccc45)ccc3C2=O)C(=O)N1 (stereo not shown) [Cpd. 14, N-((2-(2,6-dioxopiperidin-3-yl)-1-oxoisoindolin-5-yl)methyl)-2-(4-fluorophenyl)quinoline-4-carboxamide] | 33 | 23 | – | – |
| O=C1CCC(N2Cc3cc(CNC(=O)c4cnc5ccccc5n4)ccc3C2=O)C(=O)N1 (stereo not shown) [compound 2, N-((2-(2,6-dioxopiperidin-3-yl)-1-oxoisoindolin-5-yl)methyl)quinolxaline-2-carboxamide, reference compound] | – | – | > 10000 | – |
| O=C1CCC(N2Cc3cc(CNC(=O)c4cc(-c5ccccc5F)nc5ccccc45)ccc3C2=O)C(=O)N1 (stereo not shown) [Cpd. 15, N-((2-(2,6-dioxopiperidin-3-yl)-1-oxoisoindolin-5-yl)methyl)-2-(2-fluorophenyl)quinoline-4-carboxamide] | 31 | 26 | – | – |
| O=C1CCC(N2Cc3cc(CNC(=O)c4cc(-c5ccncc5)nc5ccccc45)ccc3C2=O)C(=O)N1 (stereo not shown) [Cpd. 7, N-((2-(2,6-dioxopiperidin-3-yl)-1-oxoisoindolin-5-yl)methyl)-2-(pyridin-4-yl)quinoline-4-carboxamide] | 50 | 5 | – | – |
| O=C1CCC(N2Cc3cc(CNC(=O)c4ccnc5ccccc45)ccc3C2=O)C(=O)N1 (stereo not shown) [Cpd. 9, N-((2-(2,6-dioxopiperidin-3-yl)-1-oxoisoindolin-5-yl)methyl)quinoline-4-carboxamide] | 88 | 25 | – | – |
| O=C1CCC(N2Cc3cc(CNC(=O)c4cc5ccccc5cn4)ccc3C2=O)C(=O)N1 (stereo not shown) [compound 1, N-((2-(2,6-dioxopiperidin-3-yl)-1-oxoisoindolin-5-yl)methyl)isoquinoline-3-carboxamide, reference compound] | – | – | > 10000 | – |
| O=C1CCC(N2Cc3cc(CNC(=O)C(F)(F)c4ccc(Cl)cc4)ccc3C2=O)C(=O)N1 (stereo not shown) [CC-90009, reference compound] | – | – | – | NCI-H1155 (% viability) at 10 nM ([1]; 10 nM): 85.0%; NCI-H1155 (% viability) at 500 nM ([1]; 500 nM): 23.25% |
| Cc1c(-c2ccccc2)nc2ccccc2c1C(=O)NCc1ccc2c(c1)CN(C1CCC(=O)NC1=O)C2=O (stereo not shown) [Cpd. 12, N-((2-(2,6-dioxopiperidin-3-yl)-1-oxoisoindolin-5-yl)methyl)-3-methyl-2-phenylquinoline-4-carboxamide] | 59 | 24 | – | – |
| Cc1cccc2c(C(=O)NCc3ccc4c(c3)CN(C3CCC(=O)NC3=O)C4=O)cc(-c3ccccc3)nc12 (stereo not shown) [Cpd. 4, N-((2-(2,6-dioxopiperidin-3-yl)-1-oxoisoindolin-5-yl)methyl)-8-methyl-2-phenylquinoline-4-carboxamide] | – | – | 1 | – |
| Cc1ccc2nc(-c3ccccc3)cc(C(=O)NCc3ccc4c(c3)CN(C3CCC(=O)NC3=O)C4=O)c2c1 (stereo not shown) [Cpd. 3, N-((2-(2,6-dioxopiperidin-3-yl)-1-oxoisoindolin-5-yl)methyl)-6-methyl-2-phenylquinoline-4-carboxamide] | – | – | 14 | – |
| Cc1cccc2c(C(=O)NCc3ccc4c(c3)CN(C3CCC(=O)NC3=O)C4=O)cc(-c3cccnc3)nc12 (stereo not shown) [Cpd. 10, N-((2-(2,6-dioxopiperidin-3-yl)-1-oxoisoindolin-5-yl)methyl)-8-methyl-2-(pyridin-3-yl)quinoline-4-carboxamide] | 3 | 4 | – | – |
| O=C1CCC(N2Cc3cc(CNC(=O)c4ccc5cc(Cl)ccc5n4)ccc3C2=O)C(=O)N1 (stereo not shown) [compound 3, 6-chloro-N-((2-(2,6-dioxopiperidin-3-yl)-1-oxoisoindolin-5-yl)methyl)quinoline-2-carboxamide, reference compound] | – | – | 4100 | – |
| O=C1CCC(N2Cc3cc(CNC(=O)c4cc(-c5ccccc5)nc5ccccc45)ccc3C2=O)C(=O)N1 (stereo not shown) [Cpd. 1, N-((2-(2,6-dioxopiperidin-3-yl)-1-oxoisoindolin-5-yl)methyl)-2-phenylquinoline-4-carboxamide] | – | – | 0.8 | – |
| O=C1CCC(N2Cc3cc(CNC(=O)c4cc(Cl)nc5ccccc45)ccc3C2=O)C(=O)N1 (stereo not shown) [Cpd. 8, 2-chloro-N-((2-(2,6-dioxopiperidin-3-yl)-1-oxoisoindolin-5-yl)methyl)quinoline-4-carboxamide] | 86 | 23 | – | – |
| Cc1ccccc1-c1cc(C(=O)NCc2ccc3c(c2)CN(C2CCC(=O)NC2=O)C3=O)c2ccccc2n1 (stereo not shown) [Cpd. 13, N-((2-(2,6-dioxopiperidin-3-yl)-1-oxoisoindolin-5-yl)methyl)-2-(o-tolyl)quinoline-4-carboxamide] | 32 | 26 | – | – |
| CC(C)c1ccc(-c2cc(C(=O)NCc3ccc4c(c3)CN(C3CCC(=O)NC3=O)C4=O)c3ccccc3n2)cc1 (stereo not shown) [Cpd. 2, N-((2-(2,6-dioxopiperidin-3-yl)-1-oxoisoindolin-5-yl)methyl)-2-(4-isopropylphenyl)quinoline-4-carboxamide] | – | – | 1.5 | – |
